How the values were obtained:
[1] = target: T1, DesIV (Streptomyces venezuelae, UniProt Q9ZGH3); experiment: HPLC, UV […] nm; format: biochemical; details: 1 mM TDP-D-glucose, 1 mM NAD+, 8 μM DesIV, 100 mM phosphate pH 8.0, 1 mM DTT, 5% glycerol, 25 °C
T1 construct: recombinant from E. coli (pET28/pET21-type vectors)
T1 sequence (Q9ZGH3 1-337): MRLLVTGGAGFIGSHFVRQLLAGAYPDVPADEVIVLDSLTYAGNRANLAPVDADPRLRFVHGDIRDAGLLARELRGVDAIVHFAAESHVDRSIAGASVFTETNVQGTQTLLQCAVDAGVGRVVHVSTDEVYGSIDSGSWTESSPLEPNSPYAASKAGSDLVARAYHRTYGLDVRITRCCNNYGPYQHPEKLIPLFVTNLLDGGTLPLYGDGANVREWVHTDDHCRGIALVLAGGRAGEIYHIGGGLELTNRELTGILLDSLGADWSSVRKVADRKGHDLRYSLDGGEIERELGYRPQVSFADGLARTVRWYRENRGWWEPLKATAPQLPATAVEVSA

[2] = target: EryBV (Saccharopolyspora erythraea, UniProt O33939); details: BL21(DE3)/pHL71/pHL50, 100 mg/l 6dEB, 10 μM IPTG, 20 °C, 72 h; TDP-L-mycarose made in the cell
[3] = target: EryCII/EryCIII (Saccharopolyspora erythraea, UniProt A4F7P3); details: BL21(DE3)/pHL50, 100 mg/l αMEB, 10 μM IPTG, 20 °C, 72 h; TDP-D-desosamine made in the cell

Row | Structure (SMILES) | HPLC, UV 264 nm [1] | other results
1 | Cc1cn([C@H]2C[C@H](O)[C@@H](COP(=O)(O)OP(=O)(O)O[C@H]3O[C@H](CO)[C@@H](O)[C@H](O)[C@H]3O)O2)c(=O)[nH]c1=O [A, TDP-D-glucose] | Conversion of TDP-Glucose to TDP-4-Keto-6-Deoxy-Glucose by DesIV | 
2 | CC[C@H]1OC(=O)[C@H](C)[C@@H](O)[C@H](C)[C@@H](O)[C@@H](C)C[C@@H](C)C(=O)[C@H](C)[C@@H](O)[C@H]1C [6dEB] |  | whole-cell conversion to 6-deoxyerythromycin D (with EryCII/EryCIII), B. subtili [2]: EryBV, which ordinarily transfers the mycarose sugar onto erythronolide B, is also capable of recognizing 6dEB
3 | CC[C@H]1OC(=O)[C@H](C)[C@@H](O[C@H]2C[C@@](C)(O)[C@@H](O)[C@H](C)O2)[C@H](C)[C@@H](O)[C@](C)(O)C[C@@H](C)C(=O)[C@H](C)[C@@H](O)[C@H]1C [L, αMEB] |  | % conversion [3]: ~ 25%
4 | Cc1cn([C@H]2C[C@H](O)[C@@H](COP(=O)(O)OP(=O)(O)O[C@H]3O[C@H](C)C(=O)[C@H](O)[C@H]3O)O2)c(=O)[nH]c1=O [B, TDP-4-keto-6-deoxy-D-glucose] | Conversion of TDP-Glucose to TDP-4-Keto-6-Deoxy-Glucose by DesIV | 

— publication PMC1790958, “Bioassay-Guided Evolution of Glycosylated Macrolide Antibiotics in Escherichia coli” (PLoS Biology, 2007)
